The source of these data is the supplement of paper PMC11208160.
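Note: IS621 recombinase and bridge RNA in Escherichia coli cells.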

This series in a line: recombinant barcode read abundance after kanamycin selection (control-corrected) (log10(CPM+1)); higher = more efficient recombination; sequences stand for … in AGTGCAGAGAAAATCGGCCAGTTTTCTCTGCCTGCAGTCCGCATGCCGT…AGATTTATGCAGCGGACTGCCTTTCTCCCAAAGTGATAAACCGGACAGTATCATGGACCGGTTTTCCCGGTAATCCGTATTTGCAAGGTTGGTTTCACT; site = the 11-nt target. The procedure, abridged:
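Targets and IS621 bridge RNA target-binding loops were paired in oligos, each with a promoter, a barcode and the J23119-driven first 104 bridge RNA bases. A vector carrying the remaining 73 bp and a T7-inducible recombinase received these by Gibson cloning, and the pool was co-electroporated into E. coli with a donor plasmid. Duplicate plates contained chloramphenicol/ampicillin LB agar (control) or chloramphenicol/ampicillin/kanamycin with 0.1 mM IPTG. Recombination efficiency comes from averaged, control-corrected counts per million of recombinant-junction barcodes, reported as log10(CPM+1).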
“CATATAGCTTGGGTTCTAACCTGTTGCAT (site CATATAGCTAT)”: the “recombinant barcode read abundance (log10)” value worked out at 0.693.
Under “CATATAGCTTGGGTTCTAACCTGTTGCAT (site GATCTAGCTAT)” stands 0.667; under “CATCAAGCTTGGGTTCTAACCTGTTGCCT (site CATCAAGCTAG)”, 0.929.
For “CATCAAGCTTGGGTTCTAACCTGTTGCCT (site GTATGGACTTT)” the value was 0.0466; for “CATCCGACTTGGGTTCTAACCTGTTGCTC (site AGATTTCCTAT)”, 0.122; for “CATCCGACTTGGGTTCTAACCTGTTGCTC (site CATCCGACTGA)”, 0.193.
Under “CATCCGCCTTGGGTTCTAACCTGTTGCCT (site CATCCGACTAG)” stands 0.0105; under “CATCCGCCTTGGGTTCTAACCTGTTGCCT (site CATCCGCCTAG)”, 1.11; under “CATCCGCCTTGGGTTCTAACCTGTTGCCT (site CATCCGGCTAG)”, 0.0751.
In the case of “CATCCGCCTTGGGTTCTAACCTGTTGCCT (site CATCCGTCTAG)”, the “recombinant barcode read abundance (log10)” value worked out at 0.0465.
Under “CATCGAGCTTGGGTTCTAACCTGTTGCCG (site CAACGAGCTCG)” stands 0.228; under “CATCGAGCTTGGGTTCTAACCTGTTGCCG (site CACCGAGCTCG)”, 0.43.
In the case of “CATCGAGCTTGGGTTCTAACCTGTTGCCG (site CAGCGAGCTCG)”, the “recombinant barcode read abundance (log10)” value is 0.236.
In the case of “CATCGAGCTTGGGTTCTAACCTGTTGCCG (site CATCGAGCTCG)”, the “recombinant barcode read abundance (log10)” value is 0.283.
Turning to “CATCGCTCTTGGGTTCTAACCTGTTGCTT (site CACCGTTCTAA)”, the “recombinant barcode read abundance (log10)” value turned out to be 0.0858.
For “CATCGCTCTTGGGTTCTAACCTGTTGCTT (site CATCGCTCTAA)” the value was 0.0993; for “CATGCGACTTGGGTTCTAACCTGTTGCTG (site CATGCGACTCA)”, 0.459; for “CATGCGACTTGGGTTCTAACCTGTTGCTG (site CATGCTACTGA)”, 0.351.
For “CATGCGCCTTGGGTTCTAACCTGTTGCGG (site CATGCGCCTCC)” the value was 1.26.
Under “CATGCGCCTTGGGTTCTAACCTGTTGCGG (site CATGTGTCTCC)” stands 0.0282; under “CATGCTTCTTGGGTTCTAACCTGTTGCCT (site AGAAAAGCTTT)”, 0.167; under “CATGCTTCTTGGGTTCTAACCTGTTGCCT (site CATGCTTCTAG)”, 0.526.
As to “CATGGGACTTGGGTTCTAACCTGTTGCAT (site CATGGGACTAT)”, the “recombinant barcode read abundance (log10)” value came out at 2.06.
For “CATGGGACTTGGGTTCTAACCTGTTGCAT (site GGCAAACCTCC)” the value was 0.202; for “CATGTGTCTTGGGTTCTAACCTGTTGCGG (site CATGCGCCTCC)”, 0.0713.
Under “CATGTGTCTTGGGTTCTAACCTGTTGCGG (site CATGTGTCTCC)” stands 2.69.
Under “CATTATTCTTGGGTTCTAACCTGTTGCCT (site CATAATTCTAG)” stands 0.04.
On to “CATTATTCTTGGGTTCTAACCTGTTGCCT (site CATCATTCTAG)”, for which the “recombinant barcode read abundance (log10)” value was found to be 0.0417.
For “CATTATTCTTGGGTTCTAACCTGTTGCCT (site CATGATTCTAG)” the value was 0.071; for “CATTATTCTTGGGTTCTAACCTGTTGCCT (site CATTATTCTAG)”, 0.0377; for “CATTCCACTTGGGTTCTAACCTGTTGCCT (site CATTCCACTAG)”, 0.369.
“CATTCCACTTGGGTTCTAACCTGTTGCCT (site TCGCGTGCTCC)”: the “recombinant barcode read abundance (log10)” value was 0.0105.
For “CATTCTGCTTGGGTTCTAACCTGTTGCCT (site CAATCTGCTAG)” the value was 0.136; for “CATTCTGCTTGGGTTCTAACCTGTTGCCT (site CACTCTGCTAG)”, 0.0741; for “CATTCTGCTTGGGTTCTAACCTGTTGCCT (site CAGTCTGCTAG)”, 0.136.
For “CATTCTGCTTGGGTTCTAACCTGTTGCCT (site CATTCTGCTAG)” the value was 0.12.
With “CATTGGACTTGGGTTCTAACCTGTTGCCT (site CAATGGACTAG)”, the “recombinant barcode read abundance (log10)” value came out at 0.112.
For “CATTGGACTTGGGTTCTAACCTGTTGCCT (site CACTGGACTAG)” the value was 0.0737.
“CATTGGACTTGGGTTCTAACCTGTTGCCT (site CAGTGGACTAG)”: the “recombinant barcode read abundance (log10)” value is 0.084.
“CATTGGACTTGGGTTCTAACCTGTTGCCT (site CATTGGACTAG)”: the “recombinant barcode read abundance (log10)” value was determined as 0.662.
Under “CATTGTCCTTGGGTTCTAACCTGTTGCGT (site CATTATCCTAC)” stands 0.15.
Under “CATTGTCCTTGGGTTCTAACCTGTTGCGT (site CATTGTCCTAC)” stands 1.38; under “CCAAAGGCTTGGGTTCTAACCTGTTGCCT (site CCAAAGGCTAG)”, 0.656.
For “CCAAAGGCTTGGGTTCTAACCTGTTGCCT (site CCTAATGCTAG)” the value was 0.412; for “CCAACACCTTGGGTTCTAACCTGTTGCCT (site CCAACACCTAG)”, 0.465.
Take “CCAACACCTTGGGTTCTAACCTGTTGCCT (site CCAAGTCCTAG)”: the “recombinant barcode read abundance (log10)” value was determined as 0.0965.
For “CCAAGCTCTTGGGTTCTAACCTGTTGCCT (site CCAAGCACTAG)” the value was 0.0905.
For “CCAAGCTCTTGGGTTCTAACCTGTTGCCT (site CCAAGCCCTAG)” the value was 0.177; for “CCAAGCTCTTGGGTTCTAACCTGTTGCCT (site CCAAGCGCTAG)”, 0.214.
For “CCAAGCTCTTGGGTTCTAACCTGTTGCCT (site CCAAGCTCTAG)” the value was 1.32; for “CCAAGGCCTTGGGTTCTAACCTGTTGCCT (site ACAAGGCCTAG)”, 0.161.
On to “CCAAGGCCTTGGGTTCTAACCTGTTGCCT (site CCAAGGCCTAG)”, for which the “recombinant barcode read abundance (log10)” value stood at 0.0291.
Take “CCAAGGCCTTGGGTTCTAACCTGTTGCCT (site GCAAGGCCTAG)”: the “recombinant barcode read abundance (log10)” value is 0.28.
Under “CCAAGGCCTTGGGTTCTAACCTGTTGCCT (site TCAAGGCCTAG)” stands 0.0686; under “CCAAGTCCTTGGGTTCTAACCTGTTGCCT (site CCAACACCTAG)”, 0.0147; under “CCAAGTCCTTGGGTTCTAACCTGTTGCCT (site CCAAGTCCTAG)”, 0.892.
Under “CCAATCTCTTGGGTTCTAACCTGTTGCCT (site CCAATCTCTAG)” stands 0.276; under “CCAATCTCTTGGGTTCTAACCTGTTGCCT (site CGTATCTCTAG)”, 0.0477; under “CCACCTTCTTGGGTTCTAACCTGTTGCCT (site AGTTGGCCTTC)”, 0.161.
“CCACCTTCTTGGGTTCTAACCTGTTGCCT (site CCACCTTCTAG)”: the “recombinant barcode read abundance (log10)” value was 0.0666.
Under “CCACGAACTTGGGTTCTAACCTGTTGCTT (site CCAAGTACTAA)” stands 0; under “CCACGAACTTGGGTTCTAACCTGTTGCTT (site CCACGAACTAA)”, 0.0915.
For “CCACGGACTTGGGTTCTAACCTGTTGCCT (site CCAAGGACTAG)” the value was 0.143; for “CCACGGACTTGGGTTCTAACCTGTTGCCT (site CCACGGACTAG)”, 0.651; for “CCACGGACTTGGGTTCTAACCTGTTGCCT (site CCAGGGACTAG)”, 0.129.
Under “CCACGGACTTGGGTTCTAACCTGTTGCCT (site CCATGGACTAG)” stands 0.0265; under “CCATACTCTTGGGTTCTAACCTGTTGCTT (site CCATACTCTAA)”, 1.17; under “CCATACTCTTGGGTTCTAACCTGTTGCTT (site CCATGGTCTAA)”, 0.
Take “CCATCCACTTGGGTTCTAACCTGTTGCCT (site CCATCCACTAG)”: the “recombinant barcode read abundance (log10)” value amounted to 0.318.
For “CCATCCACTTGGGTTCTAACCTGTTGCCT (site TCATCCGCTAG)” the value was 0.0523; for “CCATGAACTTGGGTTCTAACCTGTTGCCA (site CCATCAACTAG)”, 0.131.
Under “CCATGAACTTGGGTTCTAACCTGTTGCCA (site CCATGAACTTG)” stands 0.0609; under “CCGATCCCTTGGGTTCTAACCTGTTGCCT (site CAGATCCCTAG)”, 0.348; under “CCGATCCCTTGGGTTCTAACCTGTTGCCT (site CCGATCCCTAG)”, 1.4.
For “CCGATCCCTTGGGTTCTAACCTGTTGCCT (site CGGATCCCTAG)” the value was 0.213; for “CCGATCCCTTGGGTTCTAACCTGTTGCCT (site CTGATCCCTAG)”, 0.107.
Consider “CCGCACACTTGGGTTCTAACCTGTTGCCT (site ACGCACACTAG)”, for which the “recombinant barcode read abundance (log10)” value was 0.191.
